“Also recorded” adds a separate entry of the source. Marks after values point to notes of the source that are not given here.
Legend:
[1] = system: influenza A/WSN/33 (H1N1)-infected mice; test: Effect of influenza infection and i.p. liponucleotide treatment on lung function; assay type: in vivo, mouse; conditions: for CST / HR (bpm) / RBASAL / SaO2 (%) / WET:DRY: day 6
From the text: SaO2 increased from approximately 85% to approximately 96%. This is equivalent to an increase in PaO2 from approximately 65 mmHg to approximately 85 mmHg. It is also equivalent to an increase in O2 carrying capacity of blood (CaO2) from approximately 88% to approximately 97% of normal. Patients with an SaO2 of 96% or a […] would not require additional treatment

[2] = system: ATII cells from influenza A/WSN/33 (H1N1)-infected mice; test: Effect of influenza infection and CDP-CHO treatment on ATII cell ultrastructure; assay type: in vivo, mouse
From the text: FIG. 14 is a group of three transmission electron micrographs showing effects of CDP-CHO treatment on ultrastructure of ATII cell lamellar bodies (composed of surfactant lipids and proteins). Relative to mock-infected controls, lamellar bodies in ATII cells from influenza A/WSN/33 (H1N1)-infected mice are smaller and have disordered lamellae.
FIG. 15 is a group of 3 transmission electron micrographs showing effects of influenza infection on ultrastructure of ATII cell mitochondria (Mi). Relative to mock-infected controls (left), Mi in ATII cells from A/WSN/33 (H1N1)-infected mice (center) are fewer in number, less electron dense, and have disordered membranes and cristae.

influenza-infected mice = test: Effect of influenza infection and CDP-CHO treatment on lung inflammation; assay type: in vivo; conditions: day 6; 100 μg/mouse i.p., daily from 1-5 days post-infection
[3] = system: mitochondria, influenza-infected mice; test: Effect of influenza infection and CDP-CHO treatment on mitochondrial function; assay type: in vivo; conditions: day 6; 100 μg/mouse i.p., daily from 1-5 days post-infection
[4] = system: mouse model of asthma (dust mite/ragweed/Aspergillus fumigatus [DRA] triple antigen exposure); test: Airway hyperresponsiveness to methacholine (flexiVent) in DRA mouse model of asthma; assay type: in vivo, BALB/c mice
Protocol: (§1) To experimentally determine the efficacy of the liponucleotides (lipoNTs) CDP-choline (CDP-CHO), CDP-ethanolamine (CDP-ETH), and CDP-diacylglycerol 16:0/16:0 (CDP-DAG) as therapeutics in a mouse model of asthma (dust mite/ragweed/Aspergillus fumigatus [DRA] triple antigen exposure) (Chung S, et al. Oncotarget 2016 7:17532-17546).
(§2) To induce asthma, adult female BALB/c mice (n=4-5 per group) were sensitized with 50 μl alum+50 μl sterile saline containing dust mite allergen (5 μg/mouse)+ragweed allergen (5 μg/mouse)+Aspergillus allergen (5 μg/mouse) by i.p. injection on days 0 and 5. Mice were then challenged intranasally with dust mite allergen (8.3 μg/mouse)+ragweed allergen ([…])+Aspergillus allergen (8.3 μg/mouse) in 30 μl saline on days 12, 13, and 14, under isoflurane anesthesia. LipoNTs were administered daily by the intraperitoneal route in 50 μl sterile saline.
(§3) Data were collected 15 days after first exposure to DRA in terminal experiments.
Airway hyperresponsiveness (AHR) was measured by the forced-oscillation method using the SciReq flexiVent computer-controlled mechanical ventilator. […] Airway resistance at each methacholine dose was quantified by the single-compartment model. […]

[5] = system: mouse model of asthma (dust mite/ragweed/Aspergillus fumigatus [DRA] triple antigen exposure); test: BALF total and differential cell counts in DRA mouse model of asthma; assay type: in vivo, BALB/c mice
Protocol: as §1, §2, §3
Following flexiVent analysis, bronchoalveolar lavage was performed on all mice using 0.8 ml PBS. BALF total and differential cell counts (trypan-blue stained live cells and Giemsa-stained cytospins, respectively) were performed on cell pellets to assess inflammatory cell infiltrates. BALF eosinophil (EO), alveolar macrophage (AM), and neutrophil (PMN) counts were determined.

[6] = system: mouse model of asthma (dust mite/ragweed/Aspergillus fumigatus [DRA] triple antigen exposure); test: BALF cytokine and chemokine content by ELISA in DRA mouse model of asthma; assay type: in vivo, BALB/c mice; conditions: treatment days 1-14 i.p. daily, mean ± SEM
Protocol: as §1, §2, §3
BAL supernatant fluid was stored at −20° C. for subsequent measurement of cytokine and/or chemokine content by ELISA using commercially available kits in accordance with manufacturers' instructions.

[7] = 100 μg/mouse i.p. on day 5 only
[8] = i.p. daily from 1-5 days post-infection, CDP-CHO 100 μg/mouse, CDP-DAG 10 μg/mouse
[9] = i.p. daily from 1-5 days post-infection, CDP-CHO and CDP-ETH 100 μg/mouse, CDP-DAG 10 μg/mouse
[10] = ATII cells of infected mice, result in words
[11] = day 6, 100 μg/mouse i.p., daily from 1-5 days post-infection
[12] = treatment days 1-14, result in words
[13] = treatment days 1-14 i.p. daily, day 15, mean ± SEM

Molecule: C[N+](C)(C)CCO[P@TB16](=O)(O)O[P@TB16](=O)(O)OC[C@H]1O[C@@H](n2ccc(N)nc2=O)[C@H](O)[C@@H]1O [CDP-CHO, CDP-choline]
- CST [1, 7]: 0.05 ± 0.006
- HR (bpm) [1, 7]: 550 ± 10 bpm
- RBASAL [1, 7]: 1.63 ± 0.22
- SaO2 (%) [1, 7]: 92.9 ± 1.5 %
- WET:DRY [1, 7]: 6.2 ± 0.2
- CST [1, 8]: 0.05 ± 0.002
- RBASAL [1, 8]: 1.96 ± 0.12
- HR (bpm) [1, 9]: 570 ± 10 bpm
- SaO2 (%) [1, 9]: 93.5 ± 1.0 %
- WET:DRY [1, 9]: 6.2 ± 0.4
- PaO2 ([1]; equivalent of the SaO2 increase, from approximately 65 mmHg): approximately 85 mmHg
- O2 carrying capacity of blood (CaO2) ([1]; equivalent of the SaO2 increase, from approximately 88%): approximately 97 % of normal
- SaO2 ([1]; infected mice, CDP-CHO treatment, increased from approximately 85%): approximately 96%
- Effects of single dose treatment late in infection compared with daily treatment ([1]; infected mice, result in words): as good as those of daily treatment
- cardiac function ([1]; infected mice, result in words): improved cardiac function
- lung function ([1]; infected mice, result in words): better lung function
- oxygenation ([1]; infected mice, result in words): improved oxygenation
- pulmonary edema ([1]; infected mice, result in words): reduced pulmonary edema
- ATII cell mitochondria (Mi) morphology (transmission electron micrographs) [2, 10]: more electron-dense and have more normal cristae; also recorded: display normal morphology
- lamellar body morphology (transmission electron micrographs) [2, 10]: improves lamellar body morphology
- ATII CELL AREA (μm^2) [2, 11]: 53.64 ± 5.63* μm^2
- LAMELLAR BODIES/CELL [2, 11]: 8.1 ± 1.16
- LAMELLAR BODY AREA (μm^2) [2, 11]: 0.41 ± 0.04* μm^2
- MITOCHONDRIAL/CELL [2, 11]: 14.5 ± 1.78
- MIT[…] (μm^2) [2, 11]: 0.34 ± 0.01* μm^2
- BALF ALVEOLAR MACS (×10^6/ml) (influenza-infected mice): 1.08 ± 0.21 ×10^6/ml
- BALF NEUTROPHILS (×10^6/ml) (influenza-infected mice): 0.45 ± 0.07 ×10^6/ml
- BALF PC (influenza-infected mice): 1.61 ± 0.45
- VIRAL TITER (log PFU/g) (influenza-infected mice): 5.32 ± 0.07 log PFU/g
- MITOCHONDRIAL MEMBRANE POTENTIAL (ψm; DilC1(5) MCF) [3]: 10.14 ± 2.3
- MIT[…] PRODUCTION [3]: 36.91 ± 6.82
- DRA-induced AHR [4, 12]: does not attenuate
- RMAX (cmH2O · s/ml) ([4]; treatment days 1-14 i.p. daily, CDP-CHO, CDP-ETH 5 mg/kg, CDP-DAG 0.5 mg/kg, peak airway resistance at 50 mg/ml methacholine, day 15, mean ± SEM): 2.65 ± 0.06 cmH2O · s/ml
- anti-inflammatory effect (BALF leukocyte counts) [5, 12]: decreases BALF EO and AM counts
- BALF AMs (×10^6) [5, 13]: 0.14 ± 0.03 ×10^6
- BALF EOs (×10^6) [5, 13]: 0.26 ± 0.03 ×10^6
- BALF PMNs (×10^6) [5, 13]: 0.1 ± 0.03 ×10^6
- CCL-11 (pg/ml), also known as eotaxin-1 [6]: 18 ± 8 pg/mL
- IL-5 [6]: 16 ± 5 pg/mL
- IL-17 [6]: 5 ± 1 pg/mL

Molecule: NCCO[P@SP3](=O)(O)O[P@SP3](=O)(O)OC[C@H]1O[C@@H](n2ccc(N)nc2=O)[C@H](O)[C@@H]1O [CDP-ETH, CDP-ethanolamine]
- HR (bpm) [1, 9]: 540 ± 20 bpm
- SaO2 (%) [1, 9]: 91.1 ± 1.5%
- WET:DRY [1, 9]: 6.5 ± 0.4

Molecule: CDP-diacylglycerol [CDP-DAG]
- HR (bpm) [1, 9]: 600 ± 10 bpm
- SaO2 (%) [1, 9]: 95.2 ± 1.6 %
- WET:DRY [1, 9]: 5.8 ± 0.1

From patent publication US11850283B2, “Liponucleotide-based therapy for asthma” (priority 2017, dated 2023)
